Patent US11970512B2, “Amphotericin B derivatives with improved therapeutic index” (The Board of Trustees of the University of Illinois, priority 2013, dated 2024)
In brackets after ≈: the same amount, converted by molar mass. Where two headings read alike, the source gives them in different places. Blank lines part the entries; values can stand above or below the molecule they belong to.

How the values were obtained:
human erythrocytes = type: cell-based; details: for EH90 as multiple of that observed with AmB: human
Method: (§1) With efficient access to this novel AmB chemotype, ureas 2-4 were compared to AmB and a range of previously reported AmB derivatives in an in vitro antifungal and human cell toxicity screen. Yeast toxicity was measured with broth microdilution assays (MIC) against Saccharomyces cerevisiae. Human cell toxicity was studied by determining the amount of compound required to cause 90% hemolysis of human erythrocytes (EH90). […] Methyl esterification (AmBME) retains antifungal activity at 0.25 μM against S. cerevisiae, while decreasing hemolysis concentration to one third that seen with AmB. […] Hemolysis activity remained similar to AmBME and C41MeAmB. Bis-amino alkylated amide derivative AmBNR2 was previously shown to moderately improve the therapeutic index.^[19]
(§2) Each derivative proposed herein is tested for biological activity against both yeast and human cells to determine its therapeutic index. A broth microdilution experiment determines the MIC (minimum inhibitory concentration) of each derivative against S. cerevisiae and the clinically relevant C. albicans, thereby establishing the antifungal activity of each novel derivative. To test for toxicity against human cells, each compound is exposed to a hemolysis assay against red blood cells which determines the concentration required to cause 90% lysis of human red blood cells (EH90). Additionally, each compound is exposed to human primary renal tubule cells to determine the toxicity of each compound against kidney cells. These assays when compared against the known values of AmB against the same cell lines determine the improvement in therapeutic index of each compound.

[1] = Acute toxicity, single intravenous administration to healthy mice, lethality; type: in vivo
Method: FIG. 40 is a graph depicting lethality in healthy mice of single intravenous administration in the doses indicated of AmB, AmBMU, or AmBAU.
In a separate set of experiments, acute toxicity was evaluated by single intravenous administration of 1, 2, 4, 8, 16, 32, or 64 mg/kg AmB or its derivatives to healthy mice, followed by monitoring for lethality. […] AmBAU was drastically less toxic with >50% lethality not being reached until the 64 mg/kg dosage group.

Candida albicans = test: Broth microdilution assay (MIC) against C. albicans; type: cell-based; details: read-out: MIC (μM) against C. albicans
Method: Urea derivatives 2-4 maintain potent antifungal activity ranging from 0.125 μM to 3 μM against S. cerevisiae. […] AmBCU required 324 μM to cause 90% hemolysis in red blood cells, more than 30× required by AmB. Encouraged by this initial therapeutic index screen the urea series was further tested against the clinically relevant fungal cell line Candida albicans. C. albicans is the most common human fungal infection. AmB inhibits yeast grown of C. albicans at 0.25 μM. Similar to the trend seen with S. cerevisiae, the potency of urea derivatives […] increased with increasing amount of cationic character. AmBAU, AmBMU, and AmBCU require 0.25, 0.5, and 1 μM respectively (Table 2).
as §2

C. albicans = test: Mouse model of disseminated candidiasis, kidney fungal burden; type: in vivo; details: neutropenic mice; for reduction of kidney fungal burden relative to AmB: single intraperitoneal 16 mg/kg dose, 24 hours post inoculation; for reducing the fungal burden present in the kidneys, compared with AmB (in words): single intraperitoneal dose, all three tested doses (1, 4, and 16 mg/kg)
Method: FIG. 39 is a group of three graphs depicting kidney fungal load (colony forming units, cfu) in neutropenic mice inoculated intravenously with C. albicans and then treated two hours later with a single intraperitoneal dose of vehicle control, AmB, AmBMU, or AmBAU. FIG. 39A, 1 mg/kg AmB, AmBMU, or AmBAU. FIG. 39B, 4 mg/kg AmB, AmBMU, or AmBAU. FIG. 39C, 16 mg/kg AmB, AmBMU, or AmBAU.
The antifungal efficacies of AmBMU and AmBAU were tested in a mouse model of disseminated candidiasis. In this experiment neutropenic mice were infected with C. albicans via the tail vein, and then 2 hours post infection the mice were treated with a single intraperitoneal injection of AmB, AmBMU, or AmBAU. Then 2, 6, 12, and 24 hours post infection the mice were sacrificed, and the fungal burden present in their kidneys was quantified. […] The differences were most pronounced at the 16 mg/kg dose at 24 hours post inoculation. Relative to AmB, AmBMU reduced the fungal burden by 1.2 log units (p≤0.001), and AmBAU reduced the fungal burden by nearly 3 log units (p≤0.0001).

Saccharomyces cerevisiae = test: Broth microdilution assay (MIC) against Saccharomyces cerevisiae; type: cell-based; details: read-out: MIC (μM) S.cerevisiae
Method: as §1, §2

yeast = details: in vitro studies; cited from earlier work
[2] = Candida albicans, broth microdilution
[3] = Saccharomyces cerevisiae, broth microdilution

SMILES: CC1OC(O[C@H]2/C=C/C=C/C=C/C=C/C=C/C=C/C=C/[C@H](C)[C@@H](O)[C@@H](C)[C@H](C)OC(=O)C[C@H](O)C[C@H](O)CC[C@@H](O)[C@H](O)C[C@H](O)C[C@]3(O)C[C@H](O)[C@@H](NC(=O)NCCN)C(C2)O3)C(O)C(N)C1O (stereo partly drawn) [AmBAU]
cell-killing activity / toxicity towards human red blood cells (in words) (human erythrocytes): drastically decreased toxicity towards red blood cells
EH90 (μM) red blood cells (human erythrocytes; amount of compound required to cause 90% hemolysis of human erythrocytes): >500 µM
dosage group at which >50% lethality was reached ([1]; single intravenous administration): 64 mg/kg
MIC (Candida albicans; Candida albicans): 0.25 µM (≈ 0.245 µg/mL)
reduction of kidney fungal burden relative to AmB (C. albicans): ~3 log units
reducing the fungal burden present in the kidneys, compared with AmB (in words) (C. albicans): substantially more effective than AmB
MIC (Saccharomyces cerevisiae; Saccharomyces cerevisiae): 0.125 µM (≈ 0.123 µg/mL)

EH90 (μM) red blood cells (human erythrocytes): 15.32 ± 3.39 µM
MIC (Saccharomyces cerevisiae; broth microdilution): 0.25 µM (≈ 0.234 µg/mL)
SMILES: CNC(=O)[C@H]1[C@@H]2C[C@@H](O[C@@H]3O[C@H](C)[C@@H](O)[C@H](N)[C@@H]3O)/C=C/C=C/C=C/C=C/C=C/C=C/C=C/[C@H](C)[C@@H](O)[C@@H](C)[C@H](C)OC(=O)C[C@H](O)C[C@H](O)CC[C@@H](O)[C@H](O)C[C@H](O)C[C@](O)(C[C@@H]1O)O2 [AmBMA, reference compound]

SMILES: CNC(=O)N[C@H]1C2C[C@@H](OC3OC(C)C(O)C(N)C3O)/C=C/C=C/C=C/C=C/C=C/C=C/C=C/[C@H](C)[C@@H](O)[C@@H](C)[C@H](C)OC(=O)C[C@H](O)C[C@H](O)CC[C@@H](O)[C@H](O)C[C@H](O)C[C@](O)(C[C@@H]1O)O2 (stereo partly drawn) [AmBMU]
cell-killing activity / toxicity towards human red blood cells (in words) (human erythrocytes): drastically decreased toxicity towards red blood cells
EH90 as multiple of that observed with AmB (human erythrocytes): greater than 45 ×
lethality ([1]; single intravenous 64 mg/kg): survived with no observable toxicity
MIC (Candida albicans; [2]): 0.5 µM (≈ 0.476 µg/mL)
reduction of kidney fungal burden relative to AmB (C. albicans): 1.2 log units
reducing the fungal burden present in the kidneys, compared with AmB (in words) (C. albicans): substantially more effective than AmB
MIC (Saccharomyces cerevisiae; [3]): 0.25 µM (≈ 0.238 µg/mL)

SMILES: C[C@@H]1[C@H](O)[C@@H](C)/C=C/C=C/C=C/C=C/C=C/C=C/C=C/[C@H](O[C@@H]2O[C@H](C)[C@@H](O)[C@H](N)[C@@H]2O)C[C@@H]2O[C@](O)(C[C@@H](O)C[C@@H](O)[C@H](O)CC[C@@H](O)C[C@@H](O)CC(=O)O[C@H]1C)C[C@H](O)[C@H]2C(=O)O [AmB, amphotericin B]
lethality ([1]; single intravenous 4 mg/kg): All mice in the 4 mg/kg AmB dosage group died within seconds
MIC (Candida albicans; broth microdilution): 0.25 µM (≈ 0.231 µg/mL)
MIC (Saccharomyces cerevisiae; broth microdilution): 0.5 µM (≈ 0.462 µg/mL)

SMILES: CC1C=CC=CC=CC=CC=CC=CC=CC(OC2CC(N)C(O)C(C)O2)CC2OC(O)(CC(O)CC(O)C(O)CCC(O)CC(O)CC(=O)OC(C)C(C)C1O)CC(O)C2C(=O)O (stereo not drawn) [C2′deOAmB]
toxicity to yeast (yeast): toxic to yeast

SMILES: COC(=O)[C@H]1[C@@H]2C[C@@H](O[C@@H]3O[C@H](C)[C@@H](O)[C@H](N)[C@@H]3O)/C=C/C=C/C=C/C=C/C=C/C=C/C=C/[C@H](C)[C@@H](O)[C@@H](C)[C@H](C)OC(=O)C[C@H](O)C[C@H](O)CC[C@@H](O)[C@H](O)C[C@H](O)C[C@](O)(C[C@@H]1O)O2 [AmBME, reference compound]
EH90 (μM) red blood cells (human erythrocytes): 30.67 ± 5.38 µM
hemolysis concentration relative to AmB (human erythrocytes): one third
MIC (Saccharomyces cerevisiae; broth microdilution): 0.25 µM (≈ 0.235 µg/mL)

EH90 as multiple of that observed with AmB (human erythrocytes): more than 30 ×
MIC (Candida albicans; [2]): 1 µM (≈ 1.01 µg/mL)
MIC (Saccharomyces cerevisiae; [3]): 3 µM (≈ 3.03 µg/mL)
SMILES: CC1OC(O[C@H]2/C=C/C=C/C=C/C=C/C=C/C=C/C=C/[C@H](C)[C@@H](O)[C@@H](C)[C@H](C)OC(=O)C[C@H](O)C[C@H](O)CC[C@@H](O)[C@H](O)C[C@H](O)C[C@]3(O)C[C@H](O)[C@@H](NC(=O)NCCC(=O)O)C(C2)O3)C(O)C(N)C1O (stereo partly drawn) [AmBCU]
cell-killing activity / toxicity towards human red blood cells (in words) (human erythrocytes): drastically decreased toxicity towards red blood cells
